Where “and” joins values, the source holds several entries; their conditions need not be identical. Identical values can stand only once.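 Following 48 hours of exposure in 96-well plates, responses at five concentrations were used to interpolate endpoints linearly. GI50 is the concentration that inhibits growth by half.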 Calls of active or inactive are those of the source. Cut-off read from the data, not from the text of the source: active = GI50 up to about 1.1 µM and inactive = higher.
Experiments:
Assay in all cases: inhibition of tumour cell growth, NCI panel, 48 h
786-0 = tested on: 786-0
A498 = tested on: A498
A549 = tested on: A549
ACHN = tested on: ACHN
CAKI-1 = tested on: CAKI-1
CCRF-CEM = tested on: CCRF-CEM
COLO 205 = tested on: COLO 205
EKVX = tested on: EKVX
HCC 2998 = tested on: HCC 2998
HCT-116 = tested on: HCT-116
HL-60 = tested on: HL-60
HOP-62 = tested on: HOP-62
HOP-92 = tested on: HOP-92
HT-29 = tested on: HT-29
Hs-578T = tested on: Hs-578T
IGROV-1 = tested on: IGROV-1
K562 = tested on: K562
KM12 = tested on: KM12
LOX IMVI = tested on: LOX IMVI
M14 = tested on: M14
MCF7 = tested on: MCF7
MDA-MB-231 = tested on: MDA-MB-231
MDA-MB-435 = tested on: MDA-MB-435
MDA-N = tested on: MDA-N
MOLT-4 = tested on: MOLT-4
Malme-3M = tested on: Malme-3M
NCI-H226 = tested on: NCI-H226
NCI-H23 = tested on: NCI-H23
NCI-H460 = tested on: NCI-H460
NCI-H522 = tested on: NCI-H522
NCI/ADR-RES = tested on: NCI/ADR-RES
OVCAR-3 = tested on: OVCAR-3
OVCAR-4 = tested on: OVCAR-4
OVCAR-5 = tested on: OVCAR-5
OVCAR-8 = tested on: OVCAR-8
PC-3 = tested on: PC-3
SF-268 = tested on: SF-268
SF-295 = tested on: SF-295
SK-MEL-28 = tested on: SK-MEL-28
SK-MEL-2 = tested on: SK-MEL-2
SK-MEL-5 = tested on: SK-MEL-5
SK-OV-3 = tested on: SK-OV-3
SN12C = tested on: SN12C
SNB-19 = tested on: SNB-19
SNB-75 = tested on: SNB-75
SR = tested on: SR
SW-620 = tested on: SW-620
T47D = tested on: T47D
TK-10 = tested on: TK-10
U-251 = tested on: U-251
UACC-257 = tested on: UACC-257
UACC-62 = tested on: UACC-62

Measured: GI50

COc1ccc2nc(-c3ccc(OC(=O)N(C)C)cc3)cn2c1
inactive: 786-0 91.6 µM | A498 > 100 µM | A549 > 100 µM | ACHN > 100 µM | CAKI-1 > 100 µM | CCRF-CEM 67.5 µM | COLO 205 41.4 µM | EKVX > 100 µM | HCC 2998 > 100 µM | HCT-116 > 100 µM | HL-60 > 100 µM | HOP-62 > 100 µM | HOP-92 > 100 µM | HT-29 27.8 µM | Hs-578T > 100 µM | IGROV-1 > 100 µM | K562 39 µM | KM12 86.1 µM | LOX IMVI 82.8 µM | M14 75.7 µM | MCF7 > 100 µM | MDA-MB-231 > 100 µM | MDA-MB-435 > 100 µM | MDA-N > 100 µM | MOLT-4 82 µM | Malme-3M > 100 µM | NCI-H226 > 100 µM | NCI-H23 > 100 µM | NCI-H460 36 µM | NCI-H522 36 µM | NCI/ADR-RES > 100 µM | OVCAR-3 > 100 µM | OVCAR-4 > 100 µM | OVCAR-5 > 100 µM | OVCAR-8 > 100 µM | PC-3 > 100 µM | SF-268 > 100 µM | SF-295 85.5 µM | SK-MEL-28 > 100 µM | SK-MEL-2 > 100 µM | SK-MEL-5 > 100 µM | SK-OV-3 > 100 µM | SN12C > 100 µM | SNB-19 > 100 µM | SNB-75 > 100 µM | SR 38.9 µM | SW-620 > 100 µM | T47D 71.4 µM | TK-10 > 100 µM | U-251 > 100 µM | UACC-257 > 100 µM | UACC-62 > 100 µM

O=C(Nc1ccc([N+](=O)[O-])cc1)c1ccc([N+](=O)[O-])cc1
inactive: SF-295 85.9 µM and 50.2 µM | SNB-75 48.9 µM and 70.6 µM

From ChEMBL document CHEMBL1201862, “PubChem BioAssay data set” (2004)
